Legend:
primary hPTECs [1] = assay: Inflammation antibody array, supernatant (Table 2); assay type: cell-based, human; conditions: hPTEC supernatant; TGF-β1 10 ng/mL alone, 48 h
From the text: An inflammation antibody array was used to assess regulation of 31 candidate inflammatory proteins in supernatant from hPTEC cells treated with TGFβ1±danegaptide. Results are representative of 3 separate experiments and presented as mean±SEM, n=3 with key significances indicated (*P<0.05, **P<0.01, ***P<0.001; one-way ANOVA and Tukey's post-test).
(§1) A proteome profiler array (Human Cytokine Array Kit from R&D Systems, Oxfordshire, UK) was used, to determine if danegaptide negates TGFβ1-induced changes in expression and secretion of key pro-inflammatory mediators. Primary hPTECs were cultured as described above and treated with TGFβ1 (10 ng/mL)±danegaptide (100 nM) for 48 h.

Cx43 hemichannels = target: T1, Cx43 hemichannels (Homo sapiens, UniProt P17302); assay: ATP biosensing (hemichannel mediated ATP release); assay type: cell-based; conditions: hPTECs; TGFβ1 10 ng/mL alone, 48 h; removal of extracellular calcium
T1 construct: host or cells: HK2 human kidney proximal tubule epithelial cell line
T1 sequence (P17302 whole entry): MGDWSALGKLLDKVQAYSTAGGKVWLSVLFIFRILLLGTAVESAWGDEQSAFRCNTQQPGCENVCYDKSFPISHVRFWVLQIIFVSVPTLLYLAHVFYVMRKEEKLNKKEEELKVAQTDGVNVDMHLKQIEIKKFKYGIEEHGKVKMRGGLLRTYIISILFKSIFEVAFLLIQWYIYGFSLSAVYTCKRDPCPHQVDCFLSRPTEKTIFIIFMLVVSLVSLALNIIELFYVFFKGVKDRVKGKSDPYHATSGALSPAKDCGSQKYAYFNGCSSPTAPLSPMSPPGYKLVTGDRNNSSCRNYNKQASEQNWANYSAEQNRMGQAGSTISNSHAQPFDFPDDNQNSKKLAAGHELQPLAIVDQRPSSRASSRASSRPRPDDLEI
Method: HK2 cells were cultured in low (5 mM) glucose with/without TGFβ1 (10 ng/ml)±danegaptide (50 or 100 nM) for 48 h. Representative biosensor traces show ATP release following removal of extracellular calcium. […] Peak responses were quantified by comparing against a known concentration of ATP (10 μM) and mean data±SEM plotted (E). Results are representative of 3 separate experiments (n=3; **P<0.01, […] ***P<0.001; one-way ANOVA and Tukey's post-test).
ATP biosensors (Sarissa Biomedical, Coventry UK) were used in a simultaneous dual-recording ampomeric setup as described previously (Price, G. W.; Chadjichristos, C. E.; Kavvadas, P.; Tang, S. C. W.; Yiu, W. H.; Green, C. R.; Potter, J. A.; Siamantouras, E.; Squires, P. E.; Hills, C. E. Blocking Connexin-43 mediated hemichannel activity protects against early tubular injury in experimental chronic kidney disease. Cell Commun. Signal. 2020, 18). A null biosensor was used to account for non-specific electro-active artefacts and subtracted from the ATP trace. Glycerol (2 mM) was included in all recording solutions to enable ATP detection. HK2 cells were seeded on glass coverslips (10 mm diameter) in low glucose DMEM/F12 (5 mmol/L) for 48 h, prior to an overnight serum-starvation. The cells were then incubated with TGFβ1 (10 ng/ml)±danegaptide (100 nM) for 48 h. The coverslips were transferred to a chamber containing Ca^2+-containing BSS perfused at 6 ml/min (37° C.) and left for 10 min to acclimatise. ATP and null biosensors were bent and lowered so that the electrode laid parallel to the cellular monolayer. Once a stable baseline occurred, perfusion of Ca^2+-free BSS stimulated hemichannel opening. After ATP release, Ca^2+-containing BSS was used to close hemichannels, followed by a calibration solution of ATP ([…]). Recordings were acquired at 4 Hz with a Micro CED (Mark2) interface using Spike (v8.03) software.

primary hPTECs [2] = assay: Inflammation antibody array, cell lysates (Table 1); assay type: cell-based, human; conditions: hPTEC lysate; TGF-β1 10 ng/mL alone, 48 h
From the text: An inflammation antibody array was used to assess regulation of 31 candidate inflammatory proteins in cell lysates from hPTEC cells treated with TGFβ1±danegaptide. Results are representative of 3 separate experiments and presented as mean±SEM, n=3 with key significances indicated (*P<0.05, **P<0.01, ***P<0.001; one-way ANOVA and Tukey's post-test).
as §1

## TGFβ1: Recombinant hTGFβ1 (Sigma); pro-fibrotic cytokine used to stimulate the cells [reference compound]
Primary hPTECs [1]
  Angiogenin in supernatant (% compared to control): 184 ± 13.2%
  Cystatin C in supernatant (% compared to control): 169 ± 19.7%
  DPPIV in supernatant (% compared to control): 222 ± 24.3%
  ENA 78 in supernatant (% compared to control): 193 ± 17.7%
  Endoglin in supernatant (% compared to control): 101 ± 10.6%
  FGF7 in supernatant (% compared to control): 125 ± 11.3%
  Flt 3 Ligand in supernatant (% compared to control): 179 ± 6.5%
  G-CSF in supernatant (% compared to control): 171 ± 7.3%
  GM-CSF in supernatant (% compared to control): 213 ± 33.3%
  HGF in supernatant (% compared to control): 85 ± 15.8%
  ICAM-1 in supernatant (% compared to control): 191 ± 13.0%
  IFNg in supernatant (% compared to control): 123 ± 11.0%
  IGFBP-2 in supernatant (% compared to control): 259 ± 49.6%
  IGFBP-3 in supernatant (% compared to control): 147 ± 7.0%
  IL1A in supernatant (% compared to control): 109 ± 14.8%
  IL3 in supernatant (% compared to control): 127 ± 30.6%
  IL8 in supernatant (% compared to control): 138 ± 48.4%
  IL12 p70 in supernatant (% compared to control): 74 ± 11.5%
  IL13 in supernatant (% compared to control): 95 ± 16.4%
  Kallikrein 3 in supernatant (% compared to control): 75 ± 5.61%
  LIF in supernatant (% compared to control): 249 ± 32.1%
  MCP-1 in supernatant (% compared to control): 171 ± 14.3%
  MMP-9 in supernatant (% compared to control): 41 ± 8.8%
  PDGF-AA/BB in supernatant (% compared to control): 137 ± 9.7%
  RAGE in supernatant (% compared to control): 170 ± 16.3%
  RANTES in supernatant (% compared to control): 140 ± 8.6%
  Serpin E1 in supernatant (% compared to control): 91 ± 4.7%
  TFF3 in supernatant (% compared to control): 114 ± 22.2%
  TNF-α in supernatant (% compared to control): 176 ± 5.5%
  Thrombospondin-1 in supernatant (% compared to control): 120 ± 24.8%
  VEGF in supernatant (% compared to control): 209 ± 43.3%
Cx43 hemichannels
  ATP release: 3.60 ± 0.29 µM
Primary hPTECs [2]
  Angiogenin in lysate (% compared to control): 237 ± 36^ %
  Cystatin C in lysate (% compared to control): 182 ± 17.5%
  DPPIV in lysate (% compared to control): 315 ± 6.8%
  ENA 78 in lysate (% compared to control): 207 ± 21.6%
  Endoglin in lysate (% compared to control): 145 ± 24.9%
  FGF7 in lysate (% compared to control): 139 ± 5.6%
  Flt 3 Ligand in lysate (% compared to control): 212 ± 13.3%
  G-CSF in lysate (% compared to control): 201 ± 24.6%
  GM-CSF in lysate (% compared to control): 221 ± 11.1%
  HGF in lysate (% compared to control): 153 ± 17.0%
  ICAM 1 in lysate (% compared to control): 190 ± 13.6%
  IFNg in lysate (% compared to control): 206 ± 15.4%
  IGFBP2 in lysate (% compared to control): 519 ± 99.4%
  IGFBP3 in lysate (% compared to control): 394 ± 94.5%
  IL1A in lysate (% compared to control): 127 ± 26.4%
  IL3 in lysate (% compared to control): 176 ± 3.4%
  IL8 in lysate (% compared to control): 236 ± 9.4%
  IL12 p70 in lysate (% compared to control): 177 ± 31.0%
  IL13 in lysate (% compared to control): 269 ± 3.9%
  Kallikrein 3 in lysate (% compared to control): 76 ± 12.0%
  LIF in lysate (% compared to control): 328 ± 70.4%
  MCP-1 in lysate (% compared to control): 134 ± 30.2%
  MMP9 in lysate (% compared to control): 24 ± 3.1%
  PDGF-AA/BB in lysate (% compared to control): 247 ± 53.4%
  RAGE in lysate (% compared to control): 109 ± 23.8%
  RANTES in lysate (% compared to control): 235 ± 13.5%
  Serpin E1 in lysate (% compared to control): 186 ± 40.2%
  TFF3 in lysate (% compared to control): 204 ± 25.8%
  TNF-α in lysate (% compared to control): 192 ± 14.7%
  Thrombospondin-1 in lysate (% compared to control): 128 ± 37.5%
  VEGF in lysate (% compared to control): 203 ± 25.9%

From patent US20240108598A1, “Danegaptide for Use in the Treatment or Prevention of a Kidney Disease” (CIANA THERAPEUTICS APS, priority 2021, published 2024)
